In the experiment the test system is 996289-038-R-J1-PDC spheroid viability. Kind of experiment: Anticancer human tumor 996289-038-R-J1-PDC patient-derived colon adenocarcinoma cell line growth inhibition [PI3K]. To be noted: spheroids with HUVEC and MSC; for viability, T/C: stronger effect = lower value. The text has this:
Combinatorial screen of targeted agents with the PI3K inhibitors inavolisib, alpelisib, duvelisib, and copanlisib in multi-cell type tumor spheroids
A high-throughput screen of multi-cell type tumor spheroids was designed to identify active combinations of targeted small molecules and PI3K pathway inhibitors. Complex spheroids include a stromal component modeled by human endothelial cells (HUVEC) and fibroblasts modeled by human mesenchymal stem cells (MSCs). The concentration ranges selected for each drug and investigational agent were based upon clinically achievable concentrations if the clinical Cmax of the agent was known.
Compounds. The drugs and investigational agents: inavolisib (NSC800729), alpelisib (NSC765974), duvelisib (NSC772469), copanlisib (NSC816437), ipatasertib (NSC767898), afuresertib (NSC778305), talazoparib (NSC767125), sapanisertib (NSC764658), selumetinib (NSC741078), tovorafenib (DAY101, NSC766906), vemurafenib (NSC761431), ravoxertinib (NSC781343), sotorasib (NSC818433), MRTX1133 (NSC 836407), abemaciclib (NSC 768073), palbociclib (NSC758247), venetoclax (NSC 766270), SY5609 (NSC837396), enzalutamide (NSC755605), and darolutamide (NSC825331), were obtained from the National Cancer Institute (NCI) Developmental Therapeutics Program Chemical Repository. The FDA-approved anticancer drug set is available from the NCI Developmental Therapeutics Program. […] The stock solutions were prepared in dimethyl sulfoxide (DMSO, Sigma-Aldrich, St. Louis, MO, cat. D2650) at 800-fold the tested concentration and stored at -70 degrees C prior to their use. All drugs and investigational agents were tested over a range starting from a high concentration at or near the clinical Cmax and decreasing in half-log increments. If the clinical Cmax for an agent had not been determined, the highest concentration tested was 10 microM.
Cell Culture. All cells were maintained in an incubator at 37 degrees C and 5% CO2 with 95% humidity. The PDC lines were cultured according to standard operating procedures established by the NCI PDMR (https://pdmr.cancer.gov/sops/default.htm). All PDCs were thawed and cultured in Matrigel-coated flasks prepared with a working solution of 1X Ham's F-12 nutrient mix, without supplementation (Invitrogen, Waltham, MA, cat. 11765054), 100 U/mL penicillin-streptomycin (Invitrogen, cat. 15140122), and 2.5% Matrigel (Corning Inc., Corning, NY, cat. 354248) for the first three passages. The 354836-022-R-J1-PDC, 475296-252-R-J1-PDC, and 997726-040-R-J2-PDC lines were cultured in 6A media, which includes advanced DMEM/F-12 (Thermo Fisher Scientific, cat. 12634028), 10 mM HEPES (Thermo Fisher Scientific, cat. 15630080), 1X GlutaMAX supplement (Thermo Fisher Scientific, cat. 35050061), 0.1 mg/mL primocin (InvivoGen, San Diego, CA, cat. ant-pm-2), 10% defined fetal bovine serum, heat inactivated (HyClone Laboratories Inc., Logan, UT, cat. SH30070.03HI), 50% L-WRN conditioned media (ATCC, cat. CRL-3276), 1.25 mM N-Acetyl-L-cysteine (Sigma-Aldrich, cat. A9165), 10 mM nicotinamide (Sigma-Aldrich, cat. N0636), 1X B-27 supplement (Thermo Fisher Scientific, cat. 17504044), 1X N-2 supplement (Thermo Fisher Scientific, cat. 17502048), and 10 microM Y-27632 dihydrochloride (Tocris Bioscience, Bristol, United Kingdom, cat. 1254). The 624824-186-R-J2-PDC line was cultured in 6C/Colon 1B media, which includes all 6A media components plus 50 ng/mL human EGF recombinant protein (Thermo Fisher Scientific, cat. PHG0311). […]

Data on two compounds can be found in PubChem BioAssay AID1963965 (Molecular Pharmacology Branch, DTP, NCI, 2024).
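Also: spheroids exposed to compounds for seven days before viability read.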
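For viability, T/C in this document: luminescence used as a proxy for viable cell amount; percent viability relative to DMSO vehicle control as 100%.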

As usually defined, the IC50 is the point on the concentration scale where inhibition reaches its midpoint. In general, viability, T/C refers to the ratio of treated to control. In the case of `CC(C)n1nc(-c2ccc3oc(N)nc3c2)c2c(N)ncnc21` + COc1c(OCCCN2CCOCC2)ccc2c3n(c(=NC(=O)c4cnc(N)nc4)nc12)CCN3, the IC50 was 54.7 nM (curve of first compound, second compound 0.00316 µM); 49.6 nM (curve of first compound, second compound 0.01 µM); 31.6 nM (curve of first compound, second compound 0.0316 µM); 7.59 nM (curve of first compound, second compound 0.1 µM); less than 0.316 nM (curve of first compound, second compound 0.316 µM); less than 0.316 nM (curve of first compound, second compound 1 µM). Moreover, the viability, T/C runs as follows: (second compound 0.00316 µM, first compound 0.000316 µM) 92%; (second compound 0.00316 µM, first compound 0.001 µM) 81.8%; (second compound 0.00316 µM, first compound 0.00316 µM) 83.2%; (second compound 0.00316 µM, first compound 0.01 µM) 81.4%; (second compound 0.00316 µM, first compound 0.0316 µM) 63.5%; (second compound 0.00316 µM, first compound 0.1 µM) 34.5%. The viability, T/C (second compound 0.01 µM, first compound 0.000316 µM) is 92.1%; the viability, T/C (second compound 0.01 µM, first compound 0.001 µM) was 79.2%; the viability, T/C (second compound 0.01 µM, first compound 0.00316 µM) is 91.3%; the viability, T/C (second compound 0.01 µM, first compound 0.01 µM) is 82.8%; the viability, T/C (second compound 0.01 µM, first compound 0.0316 µM) is 65.7%; the viability, T/C (second compound 0.01 µM, first compound 0.1 µM) is 25.6%. In addition, the viability, T/C reads like this: (second compound 0.0316 µM, first compound 0.000316 µM) 69%; (second compound 0.0316 µM, first compound 0.001 µM) 73.7%; (second compound 0.0316 µM, first compound 0.00316 µM) 77.9%; (second compound 0.0316 µM, first compound 0.01 µM) 68.3%; (second compound 0.0316 µM, first compound 0.0316 µM) 50.2%; (second compound 0.0316 µM, first compound 0.1 µM) 25.1%. The viability, T/C by setting is: (second compound 0.1 µM, first compound 0.000316 µM) 59.1%; (second compound 0.1 µM, first compound 0.001 µM) 56.6%; (second compound 0.1 µM, first compound 0.00316 µM) 54.1%; (second compound 0.1 µM, first compound 0.01 µM) 48.3%; (second compound 0.1 µM, first compound 0.0316 µM) 37.8%; (second compound 0.1 µM, first compound 0.1 µM) 16.1%. Moreover, the viability, T/C (second compound 0.316 µM, first compound 0.000316 µM) is 34.8%; the viability, T/C (second compound 0.316 µM, first compound 0.001 µM) is 32.9%; the viability, T/C (second compound 0.316 µM, first compound 0.00316 µM) was 29.9%; the viability, T/C (second compound 0.316 µM, first compound 0.01 µM) was 35%; the viability, T/C (second compound 0.316 µM, first compound 0.0316 µM) is 24.9%; the viability, T/C (second compound 0.316 µM, first compound 0.1 µM) is 10.9%. Moreover, the viability, T/C was 20.9% (second compound 1 µM, first compound 0.000316 µM); 16.9% (second compound 1 µM, first compound 0.001 µM); 16.4% (second compound 1 µM, first compound 0.00316 µM); 16.6% (second compound 1 µM, first compound 0.01 µM); 14.4% (second compound 1 µM, first compound 0.0316 µM); 10.3% (second compound 1 µM, first compound 0.1 µM).
As to `C=CC(=O)N1CCN(c2nc(=O)n(-c3c(C)ccnc3C(C)C)c3nc(-c4c(O)cccc4F)c(F)cc23)C(C)C1` (stereo not drawn), the viability, T/C is 99.2% [middle of 4 runs] (compound 0.0316 µM); 97.6% [middle of 4 runs] (compound 0.1 µM); 106% [middle of 4 runs] (compound 1 µM); 117% [middle of 4 runs] (compound 3.16 µM); 111% [middle of 4 runs] (compound 10 µM). In addition, the IC50 (curve of compound) was more than 10000 nM.
